{"source": "PubChem BioAssay (NCI)", "assay_in_all_cases": "NCI tumour cell line growth inhibition, 48 h", "key": {"[1]": {"test_system": "KM20L2 colon"}, "[2]": {"test_system": "SK-MEL-2 melanoma"}, "[3]": {"test_system": "HT29 colon"}, "[4]": {"test_system": "NCI-H226 lung"}, "[5]": {"test_system": "SF-268 CNS"}, "[6]": {"test_system": "HCT-15 colon"}, "[7]": {"test_system": "RPMI-8226 leukemia"}, "[8]": {"test_system": "IGROV1 ovarian"}, "[9]": {"test_system": "CCRF-CEM leukemia"}, "[10]": {"test_system": "A498 renal"}, "[11]": {"test_system": "K-562 leukemia"}, "[12]": {"test_system": "HCC-2998 colon"}, "[13]": {"test_system": "DMS 273 small cell lung"}, "[14]": {"test_system": "NCI-H460 lung"}, "[15]": {"test_system": "SNB-75 CNS"}, "[16]": {"test_system": "OVCAR-4 ovarian"}, "[17]": {"test_system": "UACC-62 melanoma"}, "[18]": {"test_system": "SK-OV-3 ovarian"}, "[19]": {"test_system": "OVCAR-8 ovarian"}, "[20]": {"test_system": "COLO 205 colon"}, "[21]": {"test_system": "ACHN renal"}, "[22]": {"test_system": "SW-620 colon"}, "[23]": {"test_system": "SN12C renal"}, "[24]": {"test_system": "786-0 renal"}, "[25]": {"test_system": "NCI-H522 lung"}, "[26]": {"test_system": "MOLT-4 leukemia"}, "[27]": {"test_system": "OVCAR-5 ovarian"}, "[28]": {"test_system": "KM12 colon"}, "[29]": {"test_system": "SF-295 CNS"}, "[30]": {"test_system": "CAKI-1 renal"}, "[31]": {"test_system": "OVCAR-3 ovarian"}, "[32]": {"test_system": "SNB-78 CNS"}, "[33]": {"test_system": "HOP-18 NSCLC"}, "[34]": {"test_system": "M14 melanoma"}, "[35]": {"test_system": "SF-539 CNS"}, "[36]": {"test_system": "EKVX NSCLC"}, "[37]": {"test_system": "DMS 114 small cell lung"}, "[38]": {"test_system": "SK-MEL-28 melanoma"}, "[39]": {"test_system": "RXF 393 renal"}, "[40]": {"test_system": "HL-60(TB) leukemia"}, "[41]": {"test_system": "NCI-H23 lung"}, "[42]": {"test_system": "U251 CNS"}, "[43]": {"test_system": "M19-MEL melanoma"}, "[44]": {"test_system": "MALME-3M melanoma"}, "[45]": {"test_system": "UO-31 renal"}, "[46]": {"test_system": "HOP-92 NSCLC"}, "[47]": {"test_system": "XF 498 CNS"}, "[48]": {"test_system": "LXFL 529 NSCLC"}, "[49]": {"test_system": "A549 NSCLC"}, "[50]": {"test_system": "DLD-1 colon"}, "[51]": {"test_system": "SNB-19 CNS"}, "[52]": {"test_system": "HCT-116 colon"}, "[53]": {"test_system": "UACC-257 melanoma"}, "[54]": {"test_system": "TK-10 renal"}, "[55]": {"test_system": "SK-MEL-5 melanoma"}, "[56]": {"test_system": "HOP-62 NSCLC"}}, "note": "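All cell lines were grown in 96-well plates and treated with compound for 48 hours. Definition used: TGI = concentration required for complete inhibition of growth.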", "data": [{"smiles": "CN1C(=O)C(=O)N2c3ccc(Cl)cc3C3(c4ccccc4)N=CC12O3", "note": "(stereo unspecified)", "values": [{"measurement": "TGI", "setting": "[1]", "result": 24.1, "unit": "µM"}, {"measurement": "TGI", "setting": "[2]", "result": 30.5, "unit": "µM"}, {"measurement": "TGI", "setting": "[3]", "result": 16.1, "unit": "µM"}, {"measurement": "TGI", "setting": "[4]", "result": 26.8, "unit": "µM"}, {"measurement": "TGI", "setting": "[5]", "result": 25.6, "unit": "µM"}, {"measurement": "TGI", "setting": "[6]", "result": 13.3, "unit": "µM"}, {"measurement": "TGI", "setting": "[7]", "result": 6.87, "unit": "µM"}, {"measurement": "TGI", "setting": "[8]", "result": 40, "unit": "µM"}, {"measurement": "TGI", "setting": "[9]", "result": 17.5, "unit": "µM"}, {"measurement": "TGI", "setting": "[10]", "result": 22.9, "unit": "µM"}, {"measurement": "TGI", "setting": "[11]", "result": 19.9, "unit": "µM"}, {"measurement": "TGI", "setting": "[12]", "result": 28.4, "unit": "µM"}, {"measurement": "TGI", "setting": "[13]", "result": 16.4, "unit": "µM"}, {"measurement": "TGI", "setting": "[14]", "result": 25.8, "unit": "µM"}, {"measurement": "TGI", "setting": "[15]", "result": 24.3, "unit": "µM"}, {"measurement": "TGI", "setting": "[16]", "result": 8.43, "unit": "µM"}, {"measurement": "TGI", "setting": "[17]", "result": 15.3, "unit": "µM"}, {"measurement": "TGI", "setting": "[18]", "result": 21.7, "unit": "µM"}, {"measurement": "TGI", "setting": "[19]", "result": 12.8, "unit": "µM"}, {"measurement": "TGI", "setting": "[20]", "result": 15, "unit": "µM"}, {"measurement": "TGI", "setting": "[21]", "result": 17.7, "unit": "µM"}, {"measurement": "TGI", "setting": "[22]", "result": 14.5, "unit": "µM"}, {"measurement": "TGI", "setting": "[23]", "result": 13.7, "unit": "µM"}, {"measurement": "TGI", "setting": "[24]", "result": 28.9, "unit": "µM"}, {"measurement": "TGI", "setting": "[25]", "result": 9.14, "unit": "µM"}, {"measurement": "TGI", "setting": "[26]", "result": 7.56, "unit": "µM"}, {"measurement": "TGI", "setting": "[27]", "result": 20, "unit": "µM"}, {"measurement": "TGI", "setting": "[28]", "result": 13.7, "unit": "µM"}, {"measurement": "TGI", "setting": "[29]", "result": 23.2, "unit": "µM"}, {"measurement": "TGI", "setting": "[30]", "result": 42.7, "unit": "µM"}, {"measurement": "TGI", "setting": "[31]", "result": 14.8, "unit": "µM"}, {"measurement": "TGI", "setting": "[32]", "result": 33.8, "unit": "µM"}, {"measurement": "TGI", "setting": "[33]", "result": 34.6, "unit": "µM"}, {"measurement": "TGI", "setting": "[34]", "result": 15, "unit": "µM"}, {"measurement": "TGI", "setting": "[35]", "result": 14.6, "unit": "µM"}, {"measurement": "TGI", "setting": "[36]", "result": 27.6, "unit": "µM"}, {"measurement": "TGI", "setting": "[37]", "result": 11.6, "unit": "µM"}, {"measurement": "TGI", "setting": "[38]", "result": 12.1, "unit": "µM"}, {"measurement": "TGI", "setting": "[39]", "result": 6.34, "unit": "µM"}, {"measurement": "TGI", "setting": "[40]", "result": 6.26, "unit": "µM"}, {"measurement": "TGI", "setting": "[41]", "result": 15.5, "unit": "µM"}, {"measurement": "TGI", "setting": "[42]", "result": 30.1, "unit": "µM"}, {"measurement": "TGI", "setting": "[43]", "result": 13.7, "unit": "µM"}, {"measurement": "TGI", "setting": "[44]", "result": 47.2, "unit": "µM"}, {"measurement": "TGI", "setting": "[45]", "result": 18.1, "unit": "µM"}, {"measurement": "TGI", "setting": "[46]", "result": 6.63, "unit": "µM"}, {"measurement": "TGI", "setting": "[47]", "result": 12.3, "unit": "µM"}, {"measurement": "TGI", "setting": "[48]", "result": 10.2, "unit": "µM"}, {"measurement": "TGI", "setting": "[49]", "result": 23.1, "unit": "µM"}, {"measurement": "TGI", "setting": "[50]", "result": 10.3, "unit": "µM"}, {"measurement": "TGI", "setting": "[51]", "result": 26.8, "unit": "µM"}, {"measurement": "TGI", "setting": "[52]", "result": 13.2, "unit": "µM"}, {"measurement": "TGI", "setting": "[53]", "result": 19, "unit": "µM"}, {"measurement": "TGI", "setting": "[54]", "result": 18.1, "unit": "µM"}, {"measurement": "TGI", "setting": "[55]", "result": 17.6, "unit": "µM"}, {"measurement": "TGI", "setting": "[56]", "result": 30.7, "unit": "µM"}]}]}
